# Results published in patent publication US12692264B2, “Pyrimidine or pyridine derivative, preparation method therefor, and application thereof in pharmacy” (ABBISKO THERAPEUTICS CO., LTD., priority 2021, dated 2026).
# Experiments:
# Format in all cases: cell-based
# [1] = molecular target: Ba/F3 EGFR-V769_D770insASV (Homo sapiens, UniProt P00533, DUP767-769, cells depend on it); assay: Cell proliferation study (CellTiter-Glo, 72 hrs), Ba/F3 EGFR-V769_D770insASV; conditions: CTG, * = average of multiple measurements, read-out: Ba/F3 EGFR-V769_D770insASV IC50
# Sequence of Ba/F3 EGFR-V769_D770insASV (P00533 with tags, fused parts or gaps DUP767-769): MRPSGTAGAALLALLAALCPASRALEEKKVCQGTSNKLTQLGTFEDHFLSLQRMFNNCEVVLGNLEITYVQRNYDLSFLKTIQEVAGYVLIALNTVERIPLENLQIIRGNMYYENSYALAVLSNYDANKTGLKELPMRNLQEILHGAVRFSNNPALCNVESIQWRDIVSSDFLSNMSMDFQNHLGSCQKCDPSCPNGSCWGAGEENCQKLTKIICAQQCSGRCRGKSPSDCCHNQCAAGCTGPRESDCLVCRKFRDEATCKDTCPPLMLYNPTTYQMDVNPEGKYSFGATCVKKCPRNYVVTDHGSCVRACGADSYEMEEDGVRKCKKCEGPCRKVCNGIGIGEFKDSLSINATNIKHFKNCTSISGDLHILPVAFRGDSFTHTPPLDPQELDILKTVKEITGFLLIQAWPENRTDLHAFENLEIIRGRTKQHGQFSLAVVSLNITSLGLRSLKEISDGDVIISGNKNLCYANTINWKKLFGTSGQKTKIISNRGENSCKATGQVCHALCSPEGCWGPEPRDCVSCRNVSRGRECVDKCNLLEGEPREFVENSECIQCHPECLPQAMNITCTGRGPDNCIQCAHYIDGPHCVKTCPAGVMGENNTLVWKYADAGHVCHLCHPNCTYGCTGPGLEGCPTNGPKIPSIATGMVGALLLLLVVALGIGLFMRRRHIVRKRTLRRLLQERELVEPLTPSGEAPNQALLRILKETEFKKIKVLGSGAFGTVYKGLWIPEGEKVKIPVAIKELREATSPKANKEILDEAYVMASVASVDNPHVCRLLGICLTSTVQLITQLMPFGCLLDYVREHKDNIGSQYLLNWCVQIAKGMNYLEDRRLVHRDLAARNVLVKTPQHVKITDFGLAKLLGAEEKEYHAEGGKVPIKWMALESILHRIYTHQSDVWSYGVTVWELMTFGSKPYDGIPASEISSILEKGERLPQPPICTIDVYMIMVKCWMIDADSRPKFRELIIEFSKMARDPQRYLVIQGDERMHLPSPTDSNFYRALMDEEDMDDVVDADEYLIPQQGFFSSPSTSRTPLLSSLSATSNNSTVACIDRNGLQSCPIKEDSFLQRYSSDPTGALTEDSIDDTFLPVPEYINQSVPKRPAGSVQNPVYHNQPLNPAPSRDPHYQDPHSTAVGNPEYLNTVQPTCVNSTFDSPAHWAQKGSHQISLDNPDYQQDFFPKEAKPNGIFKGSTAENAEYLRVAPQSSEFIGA
# Method in brief: (§1)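 Cells were seeded overnight, then exposed for 72 hrs at 37 °C, 5% CO2 to 9 concentrations in 3.16-fold steps, 0.1% DMSO final, triplicate wells. Viability was read by CellTiter-Glo luminescence, with a T0 plate read at dosing. IC50 came from nonlinear sigmoidal dose-response fits.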
# [2] = test system: A431 (EGFR-WT); assay: Cell proliferation study (CellTiter-Glo, 72 hrs), A431; conditions: Homo sapiens, A-431, A431 cells, CTG, * = average of multiple measurements
# Method in brief: as §1
# [3] = molecular target: Ba/F3 EGFR-D770-N771ins_SVD (Homo sapiens, UniProt P00533, DUP768-770, cells depend on it); assay: Cell proliferation study (CellTiter-Glo, 72 hrs), Ba/F3 EGFR-D770-N771ins_SVD; conditions: CTG, * = average of multiple measurements, read-out: Ba/F3 EGFR-D770-N771ins_SVD IC50
# Sequence of Ba/F3 EGFR-D770-N771ins_SVD (P00533 with tags, fused parts or gaps DUP768-770): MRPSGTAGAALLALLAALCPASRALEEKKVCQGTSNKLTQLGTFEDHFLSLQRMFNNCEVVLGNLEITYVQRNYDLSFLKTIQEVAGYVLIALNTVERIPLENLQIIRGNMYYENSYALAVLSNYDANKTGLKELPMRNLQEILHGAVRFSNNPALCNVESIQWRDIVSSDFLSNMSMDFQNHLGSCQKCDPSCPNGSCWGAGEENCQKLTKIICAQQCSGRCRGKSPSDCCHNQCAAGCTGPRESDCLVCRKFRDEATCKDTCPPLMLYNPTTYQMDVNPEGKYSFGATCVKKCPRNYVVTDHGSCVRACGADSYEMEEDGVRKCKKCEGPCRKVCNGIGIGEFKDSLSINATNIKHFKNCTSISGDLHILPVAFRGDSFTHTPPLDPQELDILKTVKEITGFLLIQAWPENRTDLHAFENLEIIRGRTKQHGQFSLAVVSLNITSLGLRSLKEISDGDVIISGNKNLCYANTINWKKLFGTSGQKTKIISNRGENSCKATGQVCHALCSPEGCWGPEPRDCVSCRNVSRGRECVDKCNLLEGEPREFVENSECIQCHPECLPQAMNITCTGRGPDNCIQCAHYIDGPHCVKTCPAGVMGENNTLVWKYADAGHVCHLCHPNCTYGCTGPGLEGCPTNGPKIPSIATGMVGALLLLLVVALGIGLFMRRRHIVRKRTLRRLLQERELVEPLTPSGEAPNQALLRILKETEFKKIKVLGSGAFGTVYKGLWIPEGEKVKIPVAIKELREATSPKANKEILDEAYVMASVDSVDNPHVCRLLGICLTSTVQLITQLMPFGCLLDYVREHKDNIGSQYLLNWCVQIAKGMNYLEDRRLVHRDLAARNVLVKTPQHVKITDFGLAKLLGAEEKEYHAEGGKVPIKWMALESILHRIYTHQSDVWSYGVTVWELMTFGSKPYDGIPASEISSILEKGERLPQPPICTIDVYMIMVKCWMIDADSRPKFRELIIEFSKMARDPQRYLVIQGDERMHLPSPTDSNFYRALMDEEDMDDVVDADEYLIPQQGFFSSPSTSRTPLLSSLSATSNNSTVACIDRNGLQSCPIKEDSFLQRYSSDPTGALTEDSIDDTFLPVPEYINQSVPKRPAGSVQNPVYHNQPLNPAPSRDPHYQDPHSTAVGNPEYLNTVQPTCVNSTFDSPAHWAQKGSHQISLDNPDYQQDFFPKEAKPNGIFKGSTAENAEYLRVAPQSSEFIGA
# Method in brief: as §1
SMILES,GI50 [1] [nM],IC50 [2] [nM],GI50 [3] [nM]
"C=CC(=O)Nc1cc(Nc2ncc(C(=O)OC(C)C)c(N3CC(C)(C)c4nc(C)ccc43)n2)c(OC)cc1N1C[C@H]2CN(C)C[C@H]2C1 [Example 58, isopropyl 2-((5-acrylamido-2-methoxy-4-((3aR,6aS)-5-methylhexahydro-pyrrolo[3,4-c]pyrrol-2(1H)-yl)phenyl)amino)-4-(3,3,5-trimethyl-2,3-dihydro-1H-pyrrolo[3,2-b]pyridin-1-yl)pyrimidine-5-carboxylate]",38.1,1280,28.7
"C=CC(=O)Nc1cc(Nc2ncc(C(=O)OC(C)C)c(N3CC(C)(C)c4nc(Cl)ccc43)n2)c(OC)cc1N(C)CCN(C)C [Example 57, isopropyl 2-((5-acrylamido-4-((2-(dimethylami-no)ethyl)(methyl)amino)-2-methoxy-phenyl)amino)-4-(5-chloro-3,3-dimethyl-2,3-dihydro-1H-pyrrolo[3,2-b]pyridin-1-yl)pyrimidine-5-carboxylate]",62.4,988,23.3
"C=CC(=O)Nc1cc(Nc2ncc(C(=O)OC(C)C)c(N3CC(C)(C)c4nc(C=C)ccc43)n2)c(OC)cc1N(C)CCN(C)C [Example 20, isopropyl 2-((5-acrylamido-4-((2-(dimethylami-no)ethyl)(methyl)amino)-2-methoxy-phenyl)amino)-4-(3,3-dimethyl-5-vinyl-2,3-dihydro-1H-pyrrolo[3,2-b]pyridin-1-yl)pyrimidine-5-carboxylate]",66.6,746,34.3
"C=CC(=O)Nc1cc(Nc2ncc(C(=O)OC(C)C)c(N3CC(C)(C)c4ncccc43)n2)c(OC)cc1N(C)CCN(C)C [Example 2, isopropyl 2-((5-acrylamido-4-((2-(dimethylami-no)ethyl)(methyl)amino)-2-methoxy-phenyl)amino)-4-(3,3-dimethyl-2,3-dihydro-1H-pyrrolo[3,2-b]pyridin-1-yl)pyrimidine-5-carboxylate]",35,479,26.8
"C=CC(=O)Nc1cc(Nc2ncc(C(=O)OC(C)C)c(N3CC4(CCC4)c4nc(C)ccc43)n2)c(OC)cc1N(C)CCN(C)C [Example 5, isopropyl 2-((5-acrylamido-4-((2-(dimethylami-no)ethyl)(methyl)amino)-2-methoxy-phenyl)amino)-4-(5′-methylspiro(cyclo-butane-1,3′-pyrrolo[3,2-b]pyridin)-1′(2′H)-yl)pyrimidine-5-carboxylate]",30.4,516,15.8
"C=CC(=O)Nc1cc(Nc2ncc(C(=O)OC(C)C)c(N3CC(C)(C)c4nc(C)ccc43)n2)c(OC)cc1N(C)CCNC [Example 15, isopropyl 2-((5-acrylamido-2-methoxy-4-(methyl (2-(methylamino)ethyl)amino)phenyl)amino)-4-(3,3,5-trimethyl-2,3-dihydro-1H-pyrrolo[3,2-b]pyridin-1-yl)pyrimidine-5-carboxylate]",49.2,879,35
"[2H]C([2H])([2H])N(CCN(C)C)c1cc(OC)c(Nc2ncc(C(=O)OC(C)C)c(N3CC(C)(C)c4nc(C)ccc43)n2)cc1NC(=O)C=C [Example 36, isopropyl 2-((5-acrylamido-4-((2-(dimethylami-no)ethyl)(methyl-d3)amino)-2-methoxy-phenyl)amino)-4-(3,3,5-trimethyl-2,3-dihydro-1H-pyrrolo[3,2-b]pyridin-1-yl)pyrimidine-5-carboxylate]",22.8,353,14.8
"C=CC(=O)Nc1cc(Nc2ncc(C(=O)OC(C)C)c(N3CC(C)(C)c4nc(C)ccc43)n2)c(OC)nc1N1CCC[C@@H]1CN(C)C [Example 31, isopropyl (R)-2-((5-acrylamido-6-(2-((dimethyl-amino)methyl)pyrrolidin-1-yl)-2-meth-oxypyridin-3-yl)amino)-4-(3,3,5-tri-methyl-2,3-dihydro-1H-pyrrolo[3,2-b]pyridin-1-yl)pyrimidine-5-carboxylate]",13.9,183,11.8
"[2H]C1([2H])N(c2nc(Nc3cc(NC(=O)C=C)c(N4CC[C@@H](N(C)C)C4)cc3OC)ncc2C(=O)OC(C)C)c2ccc(C)nc2C1(C)C [Example 49, isopropyl (R)-2-((5-acrylamido-4-(3-(dimethyl-amino)pyrrolidin-1-yl)-2-methoxy-phenyl)amino)-4-(3,3,5-trimethyl-2,3-dihydro-1H-pyrrolo[3,2-b]pyridin-1-yl-2,2-d2)pyrimidine-5-carboxylate]",24.4,1420,31.3
"C=CC(=O)Nc1cc(Nc2ncc(C(=O)OC(C)C)c(N3CC(C)(C)c4nc(C)ccc43)n2)c(O)cc1N(C)CCN(C)C [Example 54, isopropyl 2-((5-acrylamido-4-((2-(dimethylami-no)ethyl)(methyl)amino)-2-hydroxy-phenyl)amino)-4-(3,3,5-trimethyl-2,3-dihydro-1H-pyrrolo[3,2-b]pyridin-1-yl)pyrimidine-5-carboxylate]",81.9,1140,77
"C=CC(=O)Nc1cc(Nc2ncc(C(=O)OC(C)C)c(N3CC(C)(C)c4nc(C)ccc43)n2)c(OC)cc1NCCN(C)C [Example 55, isopropyl 2-((5-acrylamido-4-((2-(dimethylami-no)ethyl)amino)-2-methoxy-phenyl)amino)-4-(3,3,5-trimethyl-2,3-dihydro-1H-pyrrolo[3,2-b]pyridin-1-yl)pyrimidine-5-carboxylate]",52,432,22.8

# Second part, the compound after the results:
GI50 [1] [nM],IC50 [2] [nM],GI50 [3] [nM],SMILES
58.2,252,20.2,"C=CC(=O)Nc1cc(Nc2ncc(C(=O)OC(C)C)c(N3CC(C)(C)c4nc(C#CC)ccc43)n2)c(OC)cc1N1CCC[C@@H]1CN(C)C [Example 79, isopropyl (R)-2-((5-acrylamido-4-(2-((dimethyl-amino)methyl)pyrrolidin-1-yl)-2-meth-oxyphenyl)amino)-4-(3,3-dimethyl-5-(prop-1-yn-1-yl)-2,3-dihydro-1H-pyrrolo[3,2-b]pyridin-1-yl)pyrimidine-5-carboxylate]"
34.8,90,12.3,"[2H]C([2H])([2H])C1(C([2H])([2H])[2H])CN(c2nc(Nc3cc(NC(=O)C=C)c(N(C)CCN(C)C)cc3OC)ncc2C(=O)OC(C)C)c2ccc(C)nc21 [Example 73, isopropyl 2-((5-acrylamido-4-((2-(dimethylami-no)ethyl)(methyl)amino)-2-methoxy-phenyl)amino)-4-(5-methyl-3,3-bis(methyl-d3)-2,3-dihydro-1H-pyrrolo[3,2-b]pyridin-1-yl)pyrimidine-5-carboxylate]"
32.2,1080,37.5,"C=CC(=O)Nc1cc(Nc2ncc(C(=O)OC(C)C)c(N3CC(C)(C)c4cc(F)c(F)cc43)n2)c(OC)cc1N(C)CCN(C)C [Example 91, isopropyl 2-((5-acrylamido-4-((2-(dimethylami-no)ethyl)(methyl)amino)-2-methoxy-phenyl)amino)-4-(5,6-difluoro-3,3-dimethylindolin-1-yl)pyrimidine-5-carboxylate]"
28.8,778,34.6,"C=CC(=O)Nc1cc(Nc2ncc(C(=O)OC(C)C)c(N3CC(C)(C)c4cc(F)c(F)cc43)n2)c(OC)cc1N1C[C@@H](F)C[C@@H]1CN(C)C [Example 93, isopropyl 2-((5-acrylamido-4-((2R,4S)-2-((di-methylamino)methyl)-4-fluoro-pyrrolidin-1-yl)-2-methoxy-phenyl)amino)-4-(5,6-difluoro-3,3-dimethylindolin-1-yl)pyrimidine-5-carboxylate]"
13.8,561,23.6,"C=CC(=O)Nc1cc(Nc2ncc(C(=O)OC(C)C)c(N3CC(C)(C)c4ccccc43)n2)c(OC)cc1N(C)CCN(C)C [Example 85, isopropyl 2-((5-acrylamido-4-((2-(dimethylami-no)ethyl)(methyl)amino)-2-methoxy-phenyl)amino)-4-(3,3-dimethylindolin-1-yl)pyrimidine-5-carboxylate]"
93.9,1260,30.9,"C=CC(=O)Nc1cc(Nc2ncc(C(=O)OC(C)C)c(N3CC(C)(C)c4nc(C#CC)ccc43)n2)c(OC)cc1N1CC(N(C)C)C1 [Example 76, isopropyl 2-((5-acrylamido-4-(3-(dimethylami-no)azetidin-1-yl)-2-methoxyphenyl)ami-no)-4-(3,3-dimethyl-5-(prop-1-yn-1-yl)-2,3-dihydro-1H-pyrrolo[3,2-b]pyridin-1-yl)pyrimidine-5-carboxylate]"
29.3,128,9,"C=CC(=O)Nc1cc(Nc2ncc(C(=O)OC(C)C)c(N3CC(C)(C)c4nc(C)ccc43)n2)c(OC(F)F)cc1N(C)CCN(C)C [Example 81, isopropyl 2-((5-acrylamido-2-(difluoromethoxy)-4-((2-(dimethylamino)eth-yl)(methyl)amino)phenyl)amino)-4-(3,3,5-trimethyl-2,3-dihydro-1H-pyrrolo[3,2-b]pyridin-1-yl)pyrimidine-5-carboxylate]"
37.9,761,31.9,"C=CC(=O)Nc1cc(Nc2ncc(C(=O)OC(C)C)c(N3CC(C)(C)c4nc(C)ccc43)n2)c(OC)cc1N1CCC[C@H](N(C)C)C1 [Example 60, isopropyl (S)-2-((5-acrylamido-4-(3-(dimethyl-amino)piperidin-1-yl)-2-methoxy-phenyl)amino)-4-(3,3,5-trimethyl-2,3-dihydro-1H-pyrrolo[3,2-b]pyridin-1-yl)pyrimidine-5-carboxylate]"
